Experimental data from EP0358766A1, “METHOD OF STERILIZING PLANT ANTHERS” (VSESOJUZNY NAUCHNO-ISSLEDOVATELSKY INST. SELSKOKHOZYAISTV. …, priority 1988, dated 1989).
Where two headings read alike, the source gives them in different places.

Key:
[1] = test system: Winterweizens Sorte Mironowskaya 808; assay: Field test of gametocidal activity (anther sterilisation), winter wheat Mironowskaya 808; type: in vivo, Weizen; conditions: for Prozentsatz des Ansetzens von Samen bei freier Bestäubung: control = 100; for pest or weed control at 1 %, 10000 g/ha: read-out: Prozentsatz der Sterilität %
Description: (§1) Die gametozide Aktivität der erfindungsgemäßen Sterilisationsmittel war in Feldversuchen in verschiedenen bodenklimatischen Zonen mit Teilstücken von 10 m^2 Größe in dreibis viermaliger Wiederholung festgestellt. Jedes Sterilisationsmittel wurde mindenstens 5 Jahre lang geprüft.
(§2) Die Entwicklung der Perioden der Organogenese wird zytologisch überwacht. Die Behandlung von Pflanzen mit dem Sterilisationsmittel erfolgt am Anfang der fünften Periode der Organogenese nach Kupermann.
(§3) Mit dem Ährenschieben verwirklicht man die Isolierung von Hauptähren und anderen Stockwerken in Pergametbeuteln. Bei Weizen und Tritikale werden Einzelisolatoren benutzt. Bei Roggen schließt man je 1 Ähre von […] verschiedenen nebeneinander befindlichen Pflanzen unter einen gemeinsamen Isolator ein. Bei Hirse wird jede Rispe getrennt isoliert. Der Sterilitätsprozentsatz (X) für Weizen, Roggen, Tritikale und Hirse wird nach der Formel [formula] ermittelt.
(§4) Die Kornzahl in nicht isolierten Ähren von Kontrollpflanzen wird bedingt für 100 % Ansetzen bei freier Bestäubung angenommen.
(§5) Um zuverlässige Angaben zu erhalten, verwendet man 20 bis 25 Isolatoren je Wiederholung für Weizen und Tritikale, 10 bis 15 Isolatoren jeder Wiederholung für Roggen und Hirse.
Pflanzen des Winterweizens Sorte Mironowskaya 808 werden in der V.Periode der Organogenese durch Zerstäubung der 2%igen wäßrigen Emulsion von 1,1,3-Tribrompropan mit Hilfe einer Rückenspritze behandelt.
Als Emulgierungsmittel setzt man 0,5 Masse% C12-C14--Kalziumalkylbenzolsulphonat zu. Als Adjuvans enthält die Emulsion 0,01 Masse% Dimethylsulfoxid. Der Verbrauch an Präparat beträgt 20 kg/ha bei 1000 Liter Wasserdurchsatz. Als Kontrolle dienen Pflanzen, behandelt mit einem Verdünner ohne Sterilisationsmittel. Die Ergebnisse sind in der Tabelle 1 angegeben.
Der ProzeB wird analog zu dem in Beispiel 1 beschriebenen durchgeführt. Als Sterilisationsmittel verwendet man eine 2%ige waßrige Emulsion von 1,1,3-Tribrom-4-chlorbutan, 1,1,2,3-Tetrabrompropan. Die Prüfergebnisse sind in der Tabelle 1 angegeben.
Der Prozeß wird analog zu dem in Beispiel 1 beschriebenen durchgeführt, nur daß man 1%ige wäßrige Emulsion von 1,2,3-Tribrompropan, 1,2-Dibrompropan, 1,1,3-Tribrom-3--chlorpropan, 1,2-Dibrom-3-chlorpropan, 1,3-Dibrompropan, 1,1,1,3-Tetrabromheptan, 1,1,3-Tribromheptan, 1,2-Dibromheptan verwendet. Die Präparatdosis beträgt 10 kg ha. Die Prüfergebnisse sind in der Tabelle 1 angegeben. Die gleichen Ergebnisse sind bei der Behandlung des Weizens Sorte Mironowskaya 808 in der VI. Periode der Organogenese erhalten.

diploidem Roggen Chulpan = assay: Field test of gametocidal activity, diploid rye Chulpan; type: in vivo; conditions: for Kornzahl der Ähre bei freier Bestäubung / Kornzahl der Ähre im Isolator / Prozentsatz des Ansetzens von Samen bei freier Bestäubung / percent sterility at 10000 g/ha: Chulpan, period V, 1% aqueous emulsion, 10 kg/ha; for Prozentsatz des Ansetzens von Samen bei freier Bestäubung: control = 100; for pest or weed control at 10000 g/ha / percent sterility at 10000 g/ha: read-out: Prozentsatz der Sterilität
Description: as §1, §2, §3, §4, §5
Pflanzen von diploidem Roggen Chulpan werden in der V.Periode der Organogenese mit einer 1%igen wäßrigen Emulsion von 1,1,3-Tribrompropan, 1,1,3-Tribrom-4-chlorbutan, 1,1,2,3-Tetrabrompropan, 1,2,3-Tribrompropan, 1,2-Dibrompropan, 1,1,3-Tribrom-3-ohlorpropan, 1,2-Dibrom-3--chlorpropan, 1,3-Dibrompropan, 1,1,1,3-Tetrabromheptan, 1,1,3-Tribromheptan bzw. 1,2-Dibromheptan behandelt. Die Emulsion enthält 0,5 Masse% C12-C14-Kalziumalkylbenzolsul- fonat und 0,01 Masse% Dimethylsulfoxid. Der Verbrauch an Präparat beträgt 10 kg/ha. Die Prüfergebnisse sind in der Tabelle 11 angegeben. Die gleichen Ergebnisse sind bei der Behandlung von diploidem Roggen Chulpan in der VI. Periode der Organogenese erhalten.

[2] = test system: Sommerweizens Sorte Moskowskaya 35; assay: Field test of gametocidal activity, spring wheat Moskowskaya 35; type: in vivo, Weizen; conditions: for Prozentsatz des Ansetzens von Samen bei freier Bestäubung: control = 100
Description: as §1, §2, §3, §4, §5
Pflanzen des Sommerweizens Sorte Moskowskaya 35 werden in der V. Periode der Organogenese (nach Kupermann) mit einer l%igen wäßrigen Emulsion von 1,1,3-Tribrompropan, […], 1,1,2,3-Tetrabrompropan, 1,2,3-Tribrompropan, 1,2-Dibrompropan, 1,1,3-Tribrom-3-chlorpropan, 1,2-Dibrom-3-chlorpropan, 1,3-Dibrompropan, 1,1,1,3-Tetrabromheptan bzw. 1,1,3-Tribromheptan behandelt. Die Emulsion enthält als Emulgierungsmittel 0,5 Masse% C12-C14-Kalzium- alkylbenzolsulfonat und als Adjuvans 0,01 Masse% Dimethylformamid. Der Verbrauch an Präparat beträgt 6 kg/ha bei 600 1 Wasserdurchsatz. Als Kontrolle dienen Pflanzen, behandelt mit dem Verdünner ohne Sterilisationsmittel.
Die Prüfergebnisse sind in der Tabelle 2 angegeben. Die gleichen Ergebnisse sind bei der Behandlung des Sommerweizens Sorte Moskowskaya 35 in der VI.Periode der Organogenese erhalten.

[3] = test system: diploidem Roggen Kharkovskaya 55; assay: Field test of gametocidal activity, diploid rye Kharkovskaya 55; type: in vivo; conditions: for Kornzahl der Ähre bei freier Bestäubung / Kornzahl der Ähre im Isolator / Prozentsatz des Ansetzens von Samen bei freier Bestäubung / percent sterility at 6000 g/ha: Kharkovskaya 55, period V, 1% aqueous emulsion, 6 kg/ha in 600 l water; for Prozentsatz des Ansetzens von Samen bei freier Bestäubung: control = 100; for pest or weed control at 6000 g/ha / percent sterility at 6000 g/ha: read-out: Prozentsatz der Sterilität
Description: as §1, §2, §3, §4, §5
Pflanzen von diploidem Roggen Kharkovskaya 55 werden in der V. Periode der Organogenese mit einer l%igen wäßrigen Emulsion von 1,1,3-Tribrompropan, 1,2,3-Tribrompropan, 1,2-Dibrompropan, 1,1,3-Tribrom-3-chlorpropan, 1,2--Dibrom-3-chlorpropan, 1,1,1,3-Tetrabromheptan, 1,1,3-Tribromheptan bzw. 1,2-Dibromheptan behandelt. Die Emulsion enthält 0,5 Masse% C12-C14-Kalziumalkylbenzolsulfonat und 0,01 Masse% Dimethylformamid als Adjuvans. Der Verbrauch an Präparat beträgt 6 kg/ha bei 600 1 Wasserdurchsatz. Die Prüfergebnisse sind in der Tabelle 13 angegeben. Die gleichen Ergebnisse sind bei der Behandlung von diploidem Roggen Kharkovskaya 55 in der VI. Periode der Organogenese erhalten.

[4] = test system: Hirse Sorte Mironovskoye 94; assay: Field test of gametocidal activity, millet Mironovskoye 94; type: in vivo; conditions: for Kornzahl der Rispe bei freier Bestäubung / Kornzahl der Rispe im Isolator / Prozentsatz des Ansetzens von Samen bei freier Bestäubung / percent sterility at 6000 g/ha: Mironovskoye 94, period V, 1% aqueous emulsion, 6 kg/ha in 600 l water; for Prozentsatz des Ansetzens von Samen bei freier Bestäubung: control = 100; for pest or weed control at 6000 g/ha / percent sterility at 6000 g/ha: read-out: Prozentsatz der Sterilität
Description: as §1, §2, §3, §4, §5
Pflanzen der Hirse Sorte Mironovskoye 94 werden in der V.Periode der Organogenese mit einer 1%igen wäßrigen Emulsion von 1,1,3-Tribrompropan, 1,2,3-Tribrompropan, 1,2-Dibrompropan, 1,2-Dibrom-3-chlorpropan, 1,3-Dibrompropan, 1,1,1,3-Tetrabromheptan, 1,1,3-Tribromheptan, 1,2-Dibromheptan behandelt. Die Emulsion enthält 0,5 Masse% C12-C14--Kalziumalkylbenzolaulfonat und 0,01 Masse% Dimethylsulfoxid als Adjuvans. Der Verbrauch an Präparat beträgt 6 kg/ha bei 600 1 Wasserdurchsatz. Die Prüfergebnisse sind in der Tabelle 15 angegeben. Die gleichen Ergebnisse sind bei der Behandlung der Hirse Sorte Mironovskoye 94 in der VI. Periode der Organogenese erhalten.

[5] = Mironowskaya 808, period V of organogenesis, 2% aqueous emulsion, 20 kg/ha in 1000 l water
[6] = Moskowskaya 35, period V, 1% aqueous emulsion, 6 kg/ha in 600 l water
[7] = read-out: Prozentsatz der Sterilität
[8] = Mironowskaya 808, period V of organogenesis, 1% aqueous emulsion, 10 kg/ha

BrCCC(Br)Br [Beispiel 1, 1,1,3-Tribrompropan]
Kornzahl der Ähre bei freier Bestäubung [1, 5]: 40,3 | Kornzahl der Ähre im Isolator [1, 5]: 0,9 | Prozentsatz des Ansetzens von Samen bei freier Bestäubung [1, 5]: 84,0% | Kornzahl der Ähre bei freier Bestäubung (diploidem Roggen Chulpan): 46,5 | Kornzahl der Ähre im Isolator (diploidem Roggen Chulpan): 0,2 | Prozentsatz des Ansetzens von Samen bei freier Bestäubung (diploidem Roggen Chulpan): 92,8% | pest or weed control at 10000 g/ha (diploidem Roggen Chulpan): 99.6% | Kornzahl der Ähre bei freier Bestäubung [2, 6]: 34,2 | Kornzahl der Ähre im Isolator [2, 6]: 0,7 | Prozentsatz des Ansetzens von Samen bei freier Bestäubung [2, 6]: 89,5% | pest or weed control at 6000 g/ha [2, 7]: 99.9% | Kornzahl der Ähre bei freier Bestäubung [3]: 43,1 | Kornzahl der Ähre im Isolator [3]: 1,2 | Prozentsatz des Ansetzens von Samen bei freier Bestäubung [3]: 95,6% | pest or weed control at 6000 g/ha [3]: 97.2% | Kornzahl der Rispe bei freier Bestäubung [4]: 175,1 | Kornzahl der Rispe im Isolator [4]: 0,0 | Prozentsatz des Ansetzens von Samen bei freier Bestäubung [4]: 71,6% | pest or weed control at 6000 g/ha [4]: 100%

CC(Br)CBr (centres unmarked) [Beispiel 5, 1,2-Dibrompropan]
Kornzahl der Ähre bei freier Bestäubung [1, 8]: 36,7 | Kornzahl der Ähre im Isolator [1, 8]: 0,1 | Prozentsatz des Ansetzens von Samen bei freier Bestäubung [1, 8]: 98,4% | pest or weed control at 1 %, 10000 g/ha [1]: 99.7% | Kornzahl der Ähre bei freier Bestäubung (diploidem Roggen Chulpan): 48,2 | Kornzahl der Ähre im Isolator (diploidem Roggen Chulpan): 0,0 | Prozentsatz des Ansetzens von Samen bei freier Bestäubung (diploidem Roggen Chulpan): 96,2% | pest or weed control at 10000 g/ha (diploidem Roggen Chulpan): 100% | Kornzahl der Ähre bei freier Bestäubung [2, 6]: 33,6 | Kornzahl der Ähre im Isolator [2, 6]: 0,0 | Prozentsatz des Ansetzens von Samen bei freier Bestäubung [2, 6]: 87,9% | pest or weed control at 6000 g/ha [2, 7]: 100% | Kornzahl der Ähre bei freier Bestäubung [3]: 42,8 | Kornzahl der Ähre im Isolator [3]: 0,8 | Prozentsatz des Ansetzens von Samen bei freier Bestäubung [3]: 94,9% | pest or weed control at 6000 g/ha [3]: 98.1% | Kornzahl der Rispe bei freier Bestäubung [4]: 160,3 | Kornzahl der Rispe im Isolator [4]: 0,0 | Prozentsatz des Ansetzens von Samen bei freier Bestäubung [4]: 65,5% | pest or weed control at 6000 g/ha [4]: 100%

BrCC(Br)CBr [Beispiel 4, 1,2,3-Tribrompropan]
Kornzahl der Ähre bei freier Bestäubung [1, 8]: 34,8 | Kornzahl der Ähre im Isolator [1, 8]: 0,0 | Prozentsatz des Ansetzens von Samen bei freier Bestäubung [1, 8]: 93,3% | pest or weed control at 1 %, 10000 g/ha [1]: 100% | Kornzahl der Ähre bei freier Bestäubung (diploidem Roggen Chulpan): 45,0 | Kornzahl der Ähre im Isolator (diploidem Roggen Chulpan): 0,0 | Prozentsatz des Ansetzens von Samen bei freier Bestäubung (diploidem Roggen Chulpan): 89,8% | pest or weed control at 10000 g/ha (diploidem Roggen Chulpan): 100% | Kornzahl der Ähre bei freier Bestäubung [2, 6]: 34,1 | Kornzahl der Ähre im Isolator [2, 6]: 0,0 | Prozentsatz des Ansetzens von Samen bei freier Bestäubung [2, 6]: 89,3% | pest or weed control at 6000 g/ha [2, 7]: 100% | Kornzahl der Ähre bei freier Bestäubung [3]: 40,5 | Kornzahl der Ähre im Isolator [3]: 0,6 | Prozentsatz des Ansetzens von Samen bei freier Bestäubung [3]: 89,8% | pest or weed control at 6000 g/ha [3]: 98.6% | Kornzahl der Rispe bei freier Bestäubung [4]: 147,5 | Kornzahl der Rispe im Isolator [4]: 0,0 | Prozentsatz des Ansetzens von Samen bei freier Bestäubung [4]: 60,2% | pest or weed control at 6000 g/ha [4]: 100%

CCCCC(Br)CC(Br)Br (centres unmarked) [Beispiel 10, 1,1,3-Tribromheptan]
Kornzahl der Ähre bei freier Bestäubung [1, 8]: 40,0 | Kornzahl der Ähre im Isolator [1, 8]: 0,6 | Prozentsatz des Ansetzens von Samen bei freier Bestäubung [1, 8]: 96,2% | pest or weed control at 1 %, 10000 g/ha [1, 8]: 98.4% | Kornzahl der Ähre bei freier Bestäubung (diploidem Roggen Chulpan): 46,3 | Kornzahl der Ähre im Isolator (diploidem Roggen Chulpan): 0,3 | Prozentsatz des Ansetzens von Samen bei freier Bestäubung (diploidem Roggen Chulpan): 92,4% | percent sterility at 10000 g/ha (diploidem Roggen Chulpan): 99.4% | Kornzahl der Ähre bei freier Bestäubung [2, 6]: 36,2 | Kornzahl der Ähre im Isolator [2, 6]: 0,1 | Prozentsatz des Ansetzens von Samen bei freier Bestäubung [2, 6]: 94,7% | percent sterility at 6000 g/ha ([2]; Moskowskaya 35, period V, 1% aqueous emulsion, 6 kg/ha in 600 l water, read-out: Prozentsatz der Sterilität): 99.8% | Kornzahl der Ähre bei freier Bestäubung [3]: 36,2 | Kornzahl der Ähre im Isolator [3]: 0,1 | Prozentsatz des Ansetzens von Samen bei freier Bestäubung [3]: 97,8% | percent sterility at 6000 g/ha [3]: 99.8% | Kornzahl der Rispe bei freier Bestäubung [4]: 180,1 | Kornzahl der Rispe im Isolator [4]: 0,0 | Prozentsatz des Ansetzens von Samen bei freier Bestäubung [4]: 73,6% | percent sterility at 6000 g/ha [4]: 100%

CCCCCC(Br)CBr (centres unmarked) [Beispiel 11, 1,2-Dibromheptan]
Kornzahl der Ähre bei freier Bestäubung [1, 8]: 39,7 | Kornzahl der Ähre im Isolator [1, 8]: 0,0 | Prozentsatz des Ansetzens von Samen bei freier Bestäubung [1, 8]: 95,4% | pest or weed control at 1 %, 10000 g/ha [1, 8]: 100% | Kornzahl der Ähre bei freier Bestäubung (diploidem Roggen Chulpan): 48,3 | Kornzahl der Ähre im Isolator (diploidem Roggen Chulpan): 0,0 | Prozentsatz des Ansetzens von Samen bei freier Bestäubung (diploidem Roggen Chulpan): 96,4% | percent sterility at 10000 g/ha (diploidem Roggen Chulpan): 100% | Kornzahl der Ähre bei freier Bestäubung [3]: 34,0 | Kornzahl der Ähre im Isolator [3]: 0,0 | Prozentsatz des Ansetzens von Samen bei freier Bestäubung [3]: 91,6% | percent sterility at 6000 g/ha [3]: 100% | Kornzahl der Rispe bei freier Bestäubung [4]: 159,6 | Kornzahl der Rispe im Isolator [4]: 0,0 | Prozentsatz des Ansetzens von Samen bei freier Bestäubung [4]: 65,2% | percent sterility at 6000 g/ha [4]: 100%
